Experimental findings from patent publication US11795460B2, “Compositions and methods for TTR gene editing and treating ATTR amyloidosis” (Intellia Therapeutics, Inc., priority 2017, dated 2023) are described below.

Series [1] concerns TTR. In words: TTR editing in primary human hepatocytes transfected with Spy Cas9 mRNA and dgRNAs (Table 9). The series is classed as cell-based. Particulars: dgRNA co-transfected with Spy Cas9 mRNA (SEQ ID NO:2). The procedure: (§1) Primary liver hepatocytes. Primary human liver hepatocytes (PHH) and primary cynomolgus liver hepatocytes (PCH) (Gibco) were cultured per the manufacturer's protocol (Invitrogen, protocol 11.28.2012). In brief, the cells were thawed and resuspended in hepatocyte thawing medium with supplements (Gibco, Cat. CM7000) followed by centrifugation at 100 g for 10 minutes for human and 80 g for 4 minutes for cyno. The supernatant was discarded and the pelleted cells resuspended in hepatocyte plating medium plus supplement pack (Invitrogen, Cat. A1217601 and CM3000). Cells were counted and plated on Bio-coat collagen I coated 96-well plates (ThermoFisher, Cat. 877272) at a density of 33,000 cells/well for human or 60,000 cells/well for cyno (or 65,000 cells/well when assaying effects on TTR protein, described further below). Plated cells were allowed to settle and adhere for 6 or 24 hours in a tissue culture incubator at 37° C. and 5% CO2 atmosphere. After incubation cells were checked for monolayer formation and media was replaced with hepatocyte culture medium with serum-free supplement pack (Invitrogen, Cat. A1217601 and CM4000).
Lipofectamine RNAiMax (ThermoFisher, Cat. 13778150) based transfections were conducted as per the manufacturer's protocol. Cells were sequentially transfected with a lipoplex containing Spy Cas9 mRNA (100 ng), Lipofectamine RNAiMax (0.4 μL/well) and OptiMem followed by a separate lipoplex containing crRNA (25 nM) and tracer RNA (25 nM) or sgRNA (25 nM), Lipofectamine RNAiMax (0.4 μL/well) and OptiMem.
(§2) Transfected cells were harvested post-transfection at 24, 48, or 72 hours. The genomic DNA was extracted from each well of a 96-well plate using 50 μL/well BuccalAmp DNA Extraction solution (Epicentre, Cat. QE09050) per manufacturer's protocol. All DNA samples were subjected to PCR and subsequent NGS analyses, as described herein.
(§3) To quantitatively determine the efficiency of editing at the target location in the genome, sequencing was utilized to identify the presence of insertions and deletions introduced by gene editing.
(§4) Primers were designed around the target site within the gene of interest (e.g. TTR), and the genomic area of interest was amplified.
(§5) Additional PCR was performed per the manufacturer's protocols (Illumina) to add chemistry for sequencing. The amplicons were sequenced on an Illumina MiSeq instrument. The reads were aligned to a reference genome (e.g., the human reference genome (hg38), the cynomologus reference genome (mf5), the rat reference genome (rn6), or the mouse reference genome (mm10)) after eliminating those having low quality scores. The resulting files containing the reads were mapped to the reference genome (BAM files), where reads that overlapped the target region of interest were selected and the number of wild type reads versus the number of reads which contain an insertion, substitution, or deletion was calculated.
(§6) The editing percentage (e.g., the “editing efficiency” or “percent editing” or “indel frequency”) is defined as the total number of sequence reads with insertions/deletions (“indels”) or substitutions over the total number of sequence reads, including wild type.
(§7) Guides in dgRNA format targeting human TTR and the cynomologus matched sequences were delivered to HEK293 Cas9, HUH7 and HepG2 cell lines, as well as primary human hepatocytes and primary cynomolgus monkey hepatocytes as described in Example 1. Percent editing was determined for crRNAs comprising each guide sequence across each cell type and the guide sequences were then rank ordered based on highest % edit. The screening data for the guide sequences in Table 1 in all five cell lines are listed below (Table 4 through 11).

The test system of series [2] is TTR. In words: TTR editing in primary human hepatocytes transfected with Spy Cas9 protein (RNP) loaded with dgRNAs (Table 8). The series is classed as cell-based. Particulars: dgRNA transfected with Spy Cas9 protein (RNP). The procedure: as §1
(§8) […] formation was performed prior to electroporation or transfection of Spy Cas9 protein loaded with guide RNAs (RNPs) onto cells. For dual guide (dgRNAs), individual crRNA and trRNA was pre-annealed by mixing equivalent amounts of reagent and incubating at 95° C. for 2 min and cooling to room temperature. Single guide (sgRNAs) were boiled at 95° C. for 2 min and cooling to room temperature. The boiled dgRNA or sgRNA was incubated with Spy Cas9 protein in Optimem for 10 minutes at room temperature to form a ribonucleoprotein (RNP) complex.
For RNP lipoplex transfections, cells were transfected with Lipofectamine RNAiMAX (ThermoFisher, Cat. 13778150) per the manufacturer's protocol. Cells were transfected with an RNP containing Spy Cas9 (10 nM), individual guide (10 nM), tracer RNA (10 nM), Lipofectamine RNAiMAX (1.0 μL/well) and OptiMem. RNP formation was performed as described above.
as §2, §3, §4, §5, §6
Guides in dgRNA format targeting human TTR and the cynomologus matched sequences were delivered to HEK293 Cas9, HUH7 and HepG2 cell lines, as well as primary human hepatocytes and primary cynomolgus monkey hepatocytes as described in Example 1. […]

The subject of series [3] is TTR. Put plainly: TTR editing in HUH7 cells transfected with Spy Cas9 mRNA and dgRNAs (Table 5). The series is classed as cell-based, human. The note with it: HUH7 cells co-transfected with Spy Cas9 mRNA (SEQ ID NO:2) and dgRNAs. The procedure: HUH7 cell line. The human hepatocellular carcinoma cell line HUH7 (Japanese Collection of Research Bioresources Cell Bank, Cat. JCRB0403) was cultured in DMEM media supplemented with 10% fetal bovine serum. Cells were plated on at a density of 15,000 cells/well in a 96-well plate 20 hours prior to transfection. Cells were transfected with Lipofectamine MessengerMAX (ThermoFisher, Cat. LMRNA003) per the manufacturer's protocol. Cells were sequentially transfected with a lipoplex containing Spy Cas9 mRNA (100 ng), MessengerMAX (0.3 μL/well) and OptiMem followed by a separate lipoplex containing individual crRNA (25 nM), tracer RNA (25 nM), MessengerMAX (0.3 μL/well) and OptiMem.
as §2, §3, §4, §5, §6, §7

The subject of series [4] is TTR. In words: TTR editing in primary human hepatocytes electroporated with Spy Cas9 protein loaded with dgRNAs (Table 7). The series is classed as cell-based. The note with it: dgRNA electroporated with Spy Cas9 protein (RNP). The procedure: as §1, §8
For RNP electroporation into primary human and cyno hepatocytes, the cells are thawed and resuspended in Lonza electroporation Primary Cell P3 buffer at a concentration of 2500 cells per μL for human hepatocytes and 3500 cells per μL for cyno hepatocytes. A volume of 20 μL of resuspended cells and 5 μL of RNP are mixed together per guide. 20 μL of the mixture is placed into a Lonza electroporation plate. The cells were electroporated using the Lonza nucleofector with the preset protocol EX-147. Post electroporation, the cells are transferred into a Biocoat plate containing pre-warmed maintenance media and placed in a tissue culture incubator at 37° C. and 5% CO2.
as §2, §3, §4, §5
The editing percentage (e.g., the “editing efficiency” or “percent editing” or “indel frequency”) is defined as the total number of sequence reads with insertions/deletions (“indels”) or substitutions over the total number of sequence reads, including wild type. […]

Series [5] concerns TTR. Put plainly: TTR editing in HEK293_Cas9 cells transfected with dgRNAs (Table 4). The series is classed as cell-based, human. Particulars: HEK293_Cas9 cells (constitutively express Spy Cas9) transfected with dgRNAs. The procedure: HEK293 Cas9 cell line. The human embryonic kidney adenocarcinoma cell line HEK293 constitutively expressing Spy Cas9 (“HEK293_Cas9”) was cultured in DMEM media supplemented with 10% fetal bovine serum and 500 μg/ml G418. Cells were plated at a density of 10,000 cells/well in a 96-well plate 24 hours prior to transfection. Cells were transfected with Lipofectamine RNAiMAX (ThermoFisher, Cat. 13778150) per the manufacturer's protocol. Cells were transfected with a lipoplex containing individual crRNA (25 nM), trRNA (25 nM), Lipofectamine RNAiMAX (0.3 μL/well) and OptiMem.
as §2, §3, §4, §5, §6, §7

For series [6], the system named is TTR. Put plainly: TTR editing in HepG2 cells transfected with Spy Cas9 mRNA and dgRNAs (Table 6). The series is classed as cell-based, human. Particulars: HepG2 cells co-transfected with Spy Cas9 mRNA (SEQ ID NO:2) and dgRNAs. The procedure: HepG2 cell line. The human hepatocellular carcinoma cell line HepG2 (American Type Culture Collection, Cat. HB-8065) was cultured in DMEM media supplemented with 10% fetal bovine serum. Cells were counted and plated on Bio-coat collagen I coated 96-well plates (ThermoFisher, Cat. 877272) at a density of 10,000 cells/well in a 96-well plate 24 hours prior to transfection. Cells were transfected with Lipofectamine 2000 (ThermoFisher, Cat. 11668019) per the manufacturer's protocol. Cells were sequentially transfected with lipoplex containing Spy Cas9 mRNA (100 ng), Lipofectamine 2000 (0.2 μL/well) and OptiMem followed by a separate lipoplex containing individual crRNA (25 nM), tracer RNA (25 nM), Lipofectamine 2000 (0.2 μL/well) and OptiMem.
as §2, §3, §4, §5, §6, §7

As to “GGGCGGCAAUGGUGUAGCGG (tested as dual guide RNA, chemistry not given here) [CR003379]”, the “Avg % Deletion” value in the series with TTR [1] was determined as 1.27%; in the series on TTR [2], 0.34%; in the series on TTR [3], 16.48%; in the series with TTR [4], 0.27%; in the series with TTR [5], 20.98%; in the series with TTR [6] it was 2.04%. Further, the “Avg % Edit” value in the series on TTR [1] is on record as 13.20%; in the series with TTR [2] it was 16.86%; with TTR [3] it was 19.18%; in the series with TTR [4] it was 6.57%; in the series with TTR [5], 26.32%; in the series on TTR [6], 19.74%. Besides, the “Avg % Insert” value came to 12.00% in the series on TTR [1]; 16.51% with TTR [2]; 3.38% in the series on TTR [3]; 6.30% in the series with TTR [4]; 5.34% in the series on TTR [5]; 17.70% with TTR [6].
For the sequence “GGGGCUCAGCAGGGCGGCAA (tested as dual guide RNA, chemistry not given here) [CR003381]”, the “Avg % Deletion” value in the series on TTR [1] turned out to be 0.73%; in the series with TTR [2], 0.27%; with TTR [3], 99.70%; in the series with TTR [4] it was 0.50%; with TTR [5], 18.23%; with TTR [6], 0.63%. Also, the “Avg % Edit” value with TTR [1] is 4.07%; in the series with TTR [2] it was 7.15%; in the series with TTR [3] it was 99.70%; with TTR [4] it was 6.20%; in the series on TTR [5], 22.04%; with TTR [6], 6.81%. For the same sequence, the “Avg % Insert” value in the series on TTR [1] was determined as 3.33%; in the series on TTR [2], 6.88%; in the series on TTR [3], 1.92%; with TTR [4] it was 5.83%; in the series with TTR [5] it was 3.82%; with TTR [6], 6.18%.
On to “UGCACGGCCACAUUGAUGGC (tested as dual guide RNA, chemistry not given here) [CR003349]”, for which the “Avg % Deletion” value was 1.70% in the series on TTR [1]; 1.83% with TTR [2]; 4.82% with TTR [3]; 1.87% in the series with TTR [4]; 5.16% in the series on TTR [5]; 3.91% in the series on TTR [6]. Besides, the “Avg % Edit” value was found to be 2.57% in the series with TTR [1]; 10.83% with TTR [2]; 14.14% in the series with TTR [3]; 4.10% in the series with TTR [4]; 13.19% in the series with TTR [5]; 8.36% with TTR [6]. The “Avg % Insert” value came out at 0.90% with TTR [1]; 9.00% in the series with TTR [2]; 9.73% in the series with TTR [3]; 2.33% in the series on TTR [4]; 8.03% with TTR [5]; 4.46% in the series on TTR [6].
In the case of “GCGGCGGGGGCCGGAGUCGU (tested as dual guide RNA, chemistry not given here) [CR003374]”, the “Avg % Deletion” value in the series with TTR [1] was determined as 0.03%; with TTR [2], 0.14%; in the series on TTR [3] it was 2.87%; in the series with TTR [4], 0.10%; in the series with TTR [5], 10.10%; in the series on TTR [6], 0.31%. The “Avg % Edit” value with TTR [1] was 0.27%; with TTR [2], 2.65%; in the series on TTR [3] it was 3.10%; in the series on TTR [4], 0.80%; in the series with TTR [5], 10.91%; in the series on TTR [6] it was 5.43%. Moreover, the “Avg % Insert” value is given as 0.27% in the series on TTR [1]; 2.52% in the series on TTR [2]; 0.45% with TTR [3]; 0.70% in the series with TTR [4]; 0.81% with TTR [5]; 5.12% in the series with TTR [6].
With “AAAUCUUACUGGAAGGCACU (tested as dual guide RNA, chemistry not given here) [CR005306]”, the “Avg % Deletion” value with TTR [1] came out at 2.87%; in the series on TTR [2], 2.57%; in the series with TTR [4], 1.37%; in the series on TTR [6], 2.87%. Further, the “Avg % Edit” value came out at 9.97% in the series on TTR [1], 18.81% in the series with TTR [2], 9.43% in the series with TTR [4] and 24.07% in the series with TTR [6]. Besides, the “Avg % Insert” value in the series on TTR [1] worked out at 7.13%; in the series with TTR [2], 16.24%; in the series with TTR [4], 8.07%; in the series on TTR [6], 21.20%.
